The values below come from patent US8247377B2, “Non-steroidal glucocorticoid inhibitors and their use in treating inflammation, allergy and auto-immune conditions” (Glaxo Group Limited, priority 2006, dated 2012).

The target in one data set is T1, glucocorticoid receptor (Homo sapiens, UniProt P04150).
T1 construct: a partially purified full length glucocorticoid receptor
T1 sequence (P04150 1-777): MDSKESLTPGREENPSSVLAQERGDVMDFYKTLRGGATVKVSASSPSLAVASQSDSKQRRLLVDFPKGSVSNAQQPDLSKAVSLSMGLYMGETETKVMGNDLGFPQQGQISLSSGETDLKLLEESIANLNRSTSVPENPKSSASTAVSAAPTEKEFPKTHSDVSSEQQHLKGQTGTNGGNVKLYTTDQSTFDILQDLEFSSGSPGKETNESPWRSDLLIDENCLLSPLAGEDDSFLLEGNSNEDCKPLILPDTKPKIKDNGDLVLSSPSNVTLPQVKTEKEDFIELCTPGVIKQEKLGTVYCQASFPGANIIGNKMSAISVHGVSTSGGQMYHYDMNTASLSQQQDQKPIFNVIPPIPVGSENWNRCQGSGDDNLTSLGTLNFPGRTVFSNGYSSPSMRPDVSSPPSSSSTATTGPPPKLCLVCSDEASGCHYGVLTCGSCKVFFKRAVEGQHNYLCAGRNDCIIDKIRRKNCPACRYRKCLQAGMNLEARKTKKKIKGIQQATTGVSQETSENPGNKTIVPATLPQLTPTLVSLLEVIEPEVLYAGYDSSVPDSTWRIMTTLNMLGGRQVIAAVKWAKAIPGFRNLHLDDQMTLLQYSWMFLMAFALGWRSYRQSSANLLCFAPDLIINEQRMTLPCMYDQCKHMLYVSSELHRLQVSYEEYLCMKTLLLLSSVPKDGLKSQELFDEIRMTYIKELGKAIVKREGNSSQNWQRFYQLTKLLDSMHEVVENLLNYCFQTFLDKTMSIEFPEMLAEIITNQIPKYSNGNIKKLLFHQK
Briefly: Glucocorticoid receptor binding assay (fluorescence polarisation). The note with it: competition with Alexa 555 fluorescently-labelled dexamethasone derivative, full length glucocorticoid receptor; read-out: glucocorticoid binding pIC50 (converted). On the procedure:
Compounds were solvated and diluted in DMSO, and transferred directly into assay plates. Fluorescent dexamethasone and a partially purified full length glucocorticoid receptor were added to the plates, together with buffer components to stabilise the GR protein and incubated at room temperature for 2 hrs in the dark. Binding of each compound was assessed by analysing the displacement of fluorescent ligand by measuring the decrease in fluorescence polarisation signal from the mixture. Dose response curves were constructed from which pIC50 values were estimated.
For orientation: Fluorescence polarisation rises when a labelled molecule tumbles more slowly, as on binding a larger partner.

The target of another data set is T2, progesterone receptor (Homo sapiens, UniProt P06401).
T2 construct: expressed in transfected cells; host or cells: CV-1 cells transduced with PRb-BacMam and MMTV-BacMam
T2 sequence (P06401 1-933): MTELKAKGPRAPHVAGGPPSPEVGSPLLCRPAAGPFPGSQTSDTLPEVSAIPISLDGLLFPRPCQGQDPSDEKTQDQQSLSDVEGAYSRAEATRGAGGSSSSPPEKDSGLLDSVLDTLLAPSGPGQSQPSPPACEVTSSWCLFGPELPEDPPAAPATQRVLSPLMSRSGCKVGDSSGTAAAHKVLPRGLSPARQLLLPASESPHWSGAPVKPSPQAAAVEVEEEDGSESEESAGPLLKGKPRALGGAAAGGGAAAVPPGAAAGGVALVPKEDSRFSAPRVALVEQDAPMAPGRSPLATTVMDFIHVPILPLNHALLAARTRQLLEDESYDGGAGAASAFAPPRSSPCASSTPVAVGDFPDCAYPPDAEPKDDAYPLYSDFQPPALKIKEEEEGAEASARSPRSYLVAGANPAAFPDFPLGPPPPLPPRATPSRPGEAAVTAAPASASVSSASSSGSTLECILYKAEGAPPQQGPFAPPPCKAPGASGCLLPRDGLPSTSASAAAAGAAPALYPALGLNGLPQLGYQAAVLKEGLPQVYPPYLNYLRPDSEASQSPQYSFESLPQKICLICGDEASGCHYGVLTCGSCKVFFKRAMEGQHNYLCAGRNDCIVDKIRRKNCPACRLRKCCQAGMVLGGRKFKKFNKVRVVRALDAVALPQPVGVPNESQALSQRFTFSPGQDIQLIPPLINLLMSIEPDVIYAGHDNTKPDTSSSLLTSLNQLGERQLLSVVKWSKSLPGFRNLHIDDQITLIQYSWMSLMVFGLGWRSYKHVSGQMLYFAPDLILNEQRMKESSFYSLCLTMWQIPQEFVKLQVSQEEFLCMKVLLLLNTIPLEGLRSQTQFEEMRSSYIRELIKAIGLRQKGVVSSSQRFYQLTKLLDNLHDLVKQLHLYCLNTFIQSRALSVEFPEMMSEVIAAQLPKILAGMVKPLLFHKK
Briefly: Assay for progesterone receptor activity (CV-1 cells, PRb-BacMam/MMTV-BacMam). Type of data set: cell-based. The note with it: CV-1 cells transduced with PRb-BacMam and MMTV-BacMam; read-out: pEC50 progesterone receptor activity (converted). On the procedure:
A T225 flask of CV-1 cells at a density of 80% confluency was washed with PBS, detached from the flask using 0.25% trypsin and counted using a Sysmex KX-21N. Cells were diluted in DMEM containing 10% Hyclone, 2 mM L-Glutamate and 1% Pen/Strep at 140 cells/μl and transduced with 10% PRb-BacMam and 10% MMTV-BacMam. […] of suspension cells were dispensed to each well of white Nunc 384-well plates, containing compounds at the required concentration. After 24 h 10 μl of Steadylite were added to each well of the plates. Plates were incubated in the dark for 10 min before reading them on a Viewlux reader. Dose response curves were constructed from which pEC50 values were estimated.

Data set [1] is described as follows: Assay for brain penetrance. The class given is in vivo. The note with it: brain and plasma, rat, single intravenous dose 1 mg/kg, read-out: brain to plasma ratio. On the procedure: Each rat received a single intravenous dose at a level of 1 mg/kg. The dose was formulated in 10% DMSO/50% PEG200/40% sterile water. Terminal blood samples were taken at 5 or 15 minutes after dosing, by cardiac puncture following anaesthesia with isofluorane. The brains were removed at the same time point.
The compounds were extracted from 20 μL plasma by protein precipitation using 120 μL acetonitrile containing an analogue compound as an internal standard. The filtered extracts were collected into a 96 well plate and were diluted with an equal volume of 10% acetonitrile containing 0.1% formic acid in water (v/v). The plate was then mixed on a plate shaker for at least 5 minutes before analysis by LC-MS/MS against a calibration line prepared in control plasma.
Each brain was weighed, then homogenised in 3 ml acetonitrile:water (10:90 v/v). The compounds were extracted from 200 μL of the resulting homogenate by protein precipitation using 600 μL acetonitrile containing an analogue compound as an internal standard. The extracts were centrifuged and 150 μl of each was filtered and transferred to a 96 well plate. The aliquot was diluted with 10% acetonitrile containing 0.1% formic acid in water (v/v). The plate was mixed on a plate shaker for at least 5 minutes before analysis by LC-MS/MS against a calibration line prepared in control brain homogenate.

Another data set deals with NFκB. Briefly: NFκB agonist assay in A549 SPAP cells. Type of data set: cell-based. The note with it: Homo sapiens; A549 SPAP cells, TNFα 3.2 ng/ml; read-out: pIC50 for the NFkB assay (converted). From the text:
Human lung carcinoma A549 cell line (ECACC No. 86012804) has been stably transfected in house with a plasmid containing an ELAM promoter sequence that has a NFκB response element within it. Stimulation of the cell line with TNFα results in intracellular signal transduction and ultimately translocation of NFκB into the nucleus. This activates the inserted DNA sequence resulting in transcription of the integrated SPAP gene, which is quantified using a colorimetric assay. […] The stably transfected cell line was grown as a monolayer in DMEM supplemented with FCS-HI (10%), Non-essential amino acids (1%), L-Glutamine (2 mM), Pen/Strep (1%) and Geneticin (50 mg/ml).
A 70% confluent T225 flask of A549 SPAP cells was harvested by centrifugation for 5 min at 200 g, resuspended in assay buffer (DMEM supplemented with 10% FCS 2×HI, 2 mM L-Glutamine, 1% Pen/Strep and Non essential amino acids) and diluted to 0.16×10^6/ml. 60 μl of cell solution was dispensed to each well of clear Nunc 384-well plates, containing compound at the required concentration. Plates were incubated for 1 h at 37° C., 95% humidity, 5% CO2 before 10 μl of TNFα was added at final concentration of 3.2 ng/ml and then returned to the cell incubator for 15 h. Plates were equilibrated to room temperature for 1 h prior to the addition of 25 μl of pNPP buffer (1M Diethanolamine pH 9.8, 0.5 mM MgCl2, 0.28M NaCl, 2 mg/ml pNPP) to each well of assay plates. The plates were covered to protect the reagents from light, and then incubated at room temperature for approximately 1 hour before reading them on an Ascent using a 405 nm single filter. Dose response curves were constructed from which pIC50 values were estimated.

Turning to `CN(CC(O)(CNC(=O)c1cnn(-c2ccc(F)cc2)c1N)C(F)(F)F)C(=O)c1c(Cl)cccc1Cl` (single isomer, unassigned) [Example 1 Enantiomer 1, 5-Amino-N-(2-{[[(2,6-dichlorophenyl)carbonyl](methyl)amino]methyl}-3,3,3-trifluoro-2-hydroxypropyl)-1-(4-fluorophenyl)-1H-pyrazole-4-carboxamide], the IC50 is at most 316 nM on glucocorticoid receptor and under 1000 nM in the data set on NFκB. For the same compound, at progesterone receptor, the EC50 is over 1000 nM. Moreover, in data set [1], the Kp at 5 min is at least 0.1.
For `CCN(CC(O)(CNC(=O)c1cnn(-c2ccc(F)cc2)c1N)C(F)(F)F)C(=O)c1c(F)cccc1F` (single isomer, unassigned) [Example 5 Enantiomer 1, 5-Amino-N-(2-{[[(2,6-difluorophenyl)carbonyl](ethyl)amino]methyl}-3,3,3-trifluoro-2-hydroxypropyl)-1-(4-fluorophenyl)-1H-pyrazole-4-carboxamide], in that order: at most 316 nM, under 1000 nM, over 1000 nM and at least 0.1.
